This note sets out measurements from PubChem BioAssay (NCI).

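Dose response: 5 concentrations. Exposure: 48 h. Format: 96-well plates. Endpoint: linear interpolation; highest concentration if not reached. GI50 marks 50% less growth. Definition used: TGI = concentration required for complete inhibition of growth.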

Some test systems named below: OVCAR-3 ovarian; MOLT-4 leukemia; 786-0 renal; HCT-116 colon; HOP-92 NSCLC; OVCAR-5 ovarian; KM12 colon; A498 renal; TK-10 renal; SF-268 CNS; MDA-N; EKVX NSCLC; SNB-75 CNS.
Holding throughout (assay): NCI anticancer screen, dose series, 48 h

With `COC(=O)C1=COC2OC3CC1C2C(C)O3` (stereo not given), the TGI in the test with OVCAR-3 ovarian, with MOLT-4 leukemia, in the test with 786-0 renal, in the test on HCT-116 colon, in the test on HOP-92 NSCLC and in the test with OVCAR-5 ovarian was above 100 µM in each case. Moreover, the TGI in the test with KM12 colon, in the test with A498 renal, in the test on TK-10 renal, with SF-268 CNS, in the test with MDA-N and with EKVX NSCLC was above 100 µM each time.
Take `CC12CCC(=O)[C@@]1(C)CCCC2O` (stereo not given in full): the TGI in the test with MOLT-4 leukemia, in the test with 786-0 renal, in the test with HCT-116 colon, in the test with OVCAR-5 ovarian, in the test on SNB-75 CNS and in the test with KM12 colon was above 100 µM each time. The TGI with TK-10 renal, in the test on SF-268 CNS, with MDA-N and with EKVX NSCLC was above 100 µM throughout.
Turning to `O=Cc1ccc(-c2ccc(S(=O)(=O)O)cc2)o1`, the TGI in the test on OVCAR-3 ovarian, in the test with MOLT-4 leukemia, in the test with 786-0 renal, in the test on HCT-116 colon, in the test with OVCAR-5 ovarian and in the test on KM12 colon was above 100 µM in each case. In addition, the TGI with A498 renal, with TK-10 renal, in the test on SF-268 CNS, in the test with MDA-N and in the test with EKVX NSCLC was above 100 µM throughout.
`C[C@H]1S[C@H](c2c(F)cccc2F)n2c1nc1ccccc12`: the TGI with OVCAR-3 ovarian, in the test with MOLT-4 leukemia, with 786-0 renal, in the test on HCT-116 colon, in the test on OVCAR-5 ovarian and in the test with SNB-75 CNS was above 100 µM in each case. Also, the TGI in the test on KM12 colon, in the test on TK-10 renal, in the test with SF-268 CNS, in the test on MDA-N and with EKVX NSCLC was above 100 µM in each case.
Turning to `O=c1c2ccccc2nc(N/N=C/c2ccc(Cl)cc2)n1-c1ccccc1`, the TGI in the test with OVCAR-3 ovarian, with MOLT-4 leukemia, in the test with 786-0 renal, in the test with HCT-116 colon, with HOP-92 NSCLC and with OVCAR-5 ovarian was above 100 µM in each case. The TGI in the test on A498 renal, in the test on TK-10 renal, with SF-268 CNS, in the test with MDA-N and in the test with EKVX NSCLC was above 100 µM each time.
In the case of `COc1cc(OC)nc(-n2c(N)c(C(=O)O)c3ccc([N+](=O)[O-])cc3c2=O)n1`, the TGI in the test with OVCAR-3 ovarian, in the test with MOLT-4 leukemia, in the test with 786-0 renal, in the test with HCT-116 colon, in the test on OVCAR-5 ovarian and in the test on SNB-75 CNS was above 100 µM throughout. Moreover, the TGI with KM12 colon, in the test on A498 renal, in the test on SF-268 CNS, in the test with MDA-N and with EKVX NSCLC was above 100 µM each time.
Take `COC1OC(Cn2cc([N+](=O)[O-])nc2C)C(O)C(O)C1O` (stereo not given): the TGI in the test on OVCAR-3 ovarian, with MOLT-4 leukemia, in the test on 786-0 renal, in the test on HCT-116 colon, in the test on HOP-92 NSCLC and with OVCAR-5 ovarian was above 100 µM each time. The TGI in the test on KM12 colon, with A498 renal, with MDA-N and with EKVX NSCLC was above 100 µM each time.
On to `CN1CCN(Cc2ccccc2)CC1CC#N` (stereo not given), for which the TGI in the test on OVCAR-3 ovarian, in the test on MOLT-4 leukemia, in the test on 786-0 renal, with HCT-116 colon, in the test on OVCAR-5 ovarian and in the test with SNB-75 CNS was above 100 µM in each case. Further, the TGI in the test on KM12 colon, with A498 renal, with TK-10 renal, in the test on SF-268 CNS, in the test on MDA-N and in the test with EKVX NSCLC was above 100 µM each time.
Regarding `CC(C)(C)OC(=O)C1/C(=C/CBr)CN1C(=O)OC(C)(C)C` (stereo not given), the TGI came to 28.6 µM in the test on OVCAR-3 ovarian; 26.1 µM in the test with MOLT-4 leukemia; 23.2 µM in the test on 786-0 renal; 26.7 µM in the test on HCT-116 colon; 31.8 µM in the test with HOP-92 NSCLC; 35.2 µM in the test with OVCAR-5 ovarian. Besides, the TGI in the test on A498 renal worked out at 31.8 µM; in the test with TK-10 renal, 31.3 µM; in the test on SF-268 CNS, 21.2 µM; with MDA-N it was 29.7 µM; with EKVX NSCLC, 37.3 µM.
Turning to `COc1cc([C@@H]2c3cc4c(cc3[C@@H](NC(=O)NO)[C@H]3COC(=O)[C@H]23)OCO4)cc(OC)c1O`, the GI50 in the test with MOLT-4 leukemia is 4.87 µM. Moreover, the TGI in the test with MOLT-4 leukemia, in the test with 786-0 renal, in the test on HCT-116 colon, in the test on HOP-92 NSCLC, in the test on A498 renal and in the test with TK-10 renal was above 100 µM in each case. In addition, the results for the TGI in the test with SF-268 CNS, in the test on MDA-N and with EKVX NSCLC were above 100 µM, 5.13 µM and above 100 µM, respectively.
For `C=CCN1C(=O)CS/C1=N\NC(=O)CSc1nc2ccccc2c(=O)n1CC`, the TGI in the test on OVCAR-3 ovarian, with MOLT-4 leukemia, in the test with 786-0 renal, in the test on HCT-116 colon, in the test with OVCAR-5 ovarian and in the test with SNB-75 CNS was above 100 µM in each case. For the same compound, the TGI in the test on KM12 colon, with A498 renal, in the test with TK-10 renal, with SF-268 CNS, with MDA-N and in the test on EKVX NSCLC was above 100 µM throughout.
Take `CCOC(=O)/C(=C\c1c(C)[nH]c2ccccc12)P(=O)(OCC)OCC`: the TGI with OVCAR-3 ovarian, in the test on MOLT-4 leukemia, in the test with 786-0 renal, in the test on HCT-116 colon, in the test with OVCAR-5 ovarian and in the test with SNB-75 CNS was above 100 µM each time. The TGI in the test with KM12 colon, in the test on A498 renal, in the test on TK-10 renal, in the test with SF-268 CNS, with MDA-N and with EKVX NSCLC was above 100 µM each time.
As for `COC1C(=O)N(SC)C1c1ccccc1Cl` (stereo not given), the TGI was 34.3 µM with OVCAR-3 ovarian; 31.6 µM with MOLT-4 leukemia; 32.9 µM with 786-0 renal; 24.4 µM with HCT-116 colon; above 100 µM with HOP-92 NSCLC; 32.2 µM in the test with OVCAR-5 ovarian. The TGI is above 100 µM in the test on KM12 colon; above 100 µM with A498 renal; above 100 µM in the test with TK-10 renal; above 100 µM in the test on SF-268 CNS; above 100 µM with MDA-N; 64.6 µM in the test on EKVX NSCLC.
In the case of `CCOC(=O)c1ccc(N(CCOS(=O)(=O)c2ccc(C)cc2)CCOS(=O)(=O)c2ccc(C)cc2)cc1`, the TGI in the test on OVCAR-3 ovarian, in the test on MOLT-4 leukemia, with HCT-116 colon, with HOP-92 NSCLC, in the test on OVCAR-5 ovarian and in the test with KM12 colon was above 100 µM throughout. Further, the TGI in the test with A498 renal, in the test with TK-10 renal, with SF-268 CNS, with MDA-N and in the test on EKVX NSCLC was above 100 µM each time.
Turning to `CCOc1nc2sc3c(c2c(=O)n1CCSSCCn1c(OCC)nc2sc4c(c2c1=O)CCCC4)CCCC3`, the TGI in the test with OVCAR-3 ovarian, with MOLT-4 leukemia, in the test on 786-0 renal, in the test with HCT-116 colon, in the test on OVCAR-5 ovarian and in the test with SNB-75 CNS was above 100 µM in each case. In addition, the TGI in the test with KM12 colon, in the test with A498 renal, in the test with TK-10 renal, with SF-268 CNS, with MDA-N and in the test on EKVX NSCLC was above 100 µM each time.
On to `Oc1ccc(/C=N/c2nccs2)c(O)c1`, for which the TGI in the test with OVCAR-3 ovarian, with 786-0 renal, in the test on HCT-116 colon, in the test on OVCAR-5 ovarian, in the test with SNB-75 CNS and with KM12 colon was above 100 µM each time. Moreover, the TGI with TK-10 renal, with SF-268 CNS, with MDA-N and in the test on EKVX NSCLC was above 100 µM in each case.
Turning to `CN1N=C(c2ccccc2)c2cc(Cl)ccc2N=C1N/N=C/c1ccc(N(C)C)cc1`, the TGI in the test on OVCAR-3 ovarian, with MOLT-4 leukemia, in the test with 786-0 renal, in the test on HCT-116 colon, with SNB-75 CNS and in the test on KM12 colon was above 100 µM in each case. Also, the TGI with TK-10 renal, with SF-268 CNS, in the test with MDA-N and with EKVX NSCLC was above 100 µM throughout.
For the compound `N[C@H]1CCN(c2c(F)cc3c(=O)c(C(=O)O)cn4c3c2Oc2c-4ccc3c2ccc2ccccc23)C1`, the TGI in the test on OVCAR-3 ovarian is above 100 µM; with MOLT-4 leukemia, above 100 µM; in the test with 786-0 renal, above 36.6 µM; in the test with HCT-116 colon, above 35.3 µM; in the test on HOP-92 NSCLC, above 49.6 µM; in the test on OVCAR-5 ovarian, above 100 µM. Moreover, the TGI in the test with KM12 colon was above 62.7 µM; in the test with A498 renal, above 100 µM; in the test with MDA-N, above 53.6 µM; with EKVX NSCLC it was above 24.7 µM. Further, the GI50 in the test with MOLT-4 leukemia is 0.266 µM.
Consider `O=C1NC(N2CCCCC2)=N/C1=C\c1ccco1`, for which the TGI in the test with OVCAR-3 ovarian, in the test with MOLT-4 leukemia, in the test on 786-0 renal, with HCT-116 colon, in the test on HOP-92 NSCLC and in the test on OVCAR-5 ovarian was above 100 µM throughout. The TGI in the test with KM12 colon, with TK-10 renal, in the test with SF-268 CNS, in the test on MDA-N and in the test with EKVX NSCLC was above 100 µM throughout.
